Test results as given in PubChem BioAssay (NCI).
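A five-concentration, 48-hour dose response in 96-well plates underlies each endpoint, interpolated linearly between surrounding concentrations. At the TGI there is no net growth.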

Legend:
Assay in all cases: NCI anticancer screen, dose series, 48 h
[1] = system: U251 CNS
[2] = system: SF-295 CNS
[3] = system: T-47D breast
[4] = system: NCI-H226 lung
[5] = system: OVCAR-8 ovarian
[6] = system: SK-MEL-2 melanoma
[7] = system: HT29 colon
[8] = system: SK-MEL-28 melanoma
[9] = system: TK-10 renal
[10] = system: EKVX NSCLC
[11] = system: SNB-19 CNS
[12] = system: K-562 leukemia
[13] = system: SR leukemia
[14] = system: MDA-N
[15] = system: SK-OV-3 ovarian
[16] = system: RXF 393 renal
[17] = system: SW-620 colon
[18] = system: OVCAR-4 ovarian
[19] = system: MDA-MB-435
[20] = system: SN12C renal
[21] = system: OVCAR-5 ovarian
[22] = system: MALME-3M melanoma
[23] = system: CAKI-1 renal
[24] = system: HOP-62 NSCLC
[25] = system: MCF7 breast
[26] = system: NCI/ADR-RES ovarian
[27] = system: CCRF-CEM leukemia
[28] = system: A498 renal
[29] = system: SF-539 CNS
[30] = system: A549 NSCLC
[31] = system: SF-268 CNS
[32] = system: 786-0 renal
[33] = system: ACHN renal
[34] = system: NCI-H522 lung
[35] = system: PC-3 prostate
[36] = system: LOX IMVI melanoma
[37] = system: HCT-116 colon
[38] = system: RPMI-8226 leukemia
[39] = system: UACC-62 melanoma
[40] = system: MDA-MB-231 breast
[41] = system: SK-MEL-5 melanoma
[42] = system: HL-60(TB) leukemia
[43] = system: IGROV1 ovarian
[44] = system: COLO 205 colon
[45] = system: SNB-75 CNS
[46] = system: DU-145 prostate
[47] = system: NCI-H23 lung
[48] = system: HOP-92 NSCLC
[49] = system: KM12 colon
[50] = system: MOLT-4 leukemia
[51] = system: UO-31 renal
[52] = system: HCT-15 colon
[53] = system: M14 melanoma
[54] = system: BT-549 breast
[55] = system: NCI-H460 lung
[56] = system: UACC-257 melanoma
[57] = system: HCC-2998 colon
[58] = system: OVCAR-3 ovarian

For `CC(=NC1CCCCC1)c1ccccc1O`, the TGI [1] was > 100 µM, the TGI [2] was > 100 µM and the TGI [3] was > 100 µM. For the same compound, the TGI [4] was > 100 µM, the TGI [5] was > 100 µM and the TGI [6] was > 100 µM. For the same compound, the TGI [7] was > 100 µM, the TGI [8] was > 100 µM and the TGI [9] was > 100 µM. The TGI [10] was > 100 µM, the TGI [11] was > 100 µM and the TGI [12] was > 100 µM. For the same compound, the TGI [13] was > 100 µM, the TGI [14] was > 100 µM and the TGI [15] was > 100 µM. For the same compound, the TGI [16] was > 100 µM, the TGI [17] was > 100 µM and the TGI [18] was > 100 µM. The TGI [19] was > 100 µM, the TGI [20] was > 100 µM and the TGI [21] was > 100 µM. The TGI [22] was > 100 µM, the TGI [23] was > 100 µM and the TGI [24] was > 100 µM. The TGI [25] was > 100 µM, the TGI [26] was > 100 µM and the TGI [27] was > 100 µM. The TGI [28] was > 100 µM, the TGI [29] was > 100 µM and the TGI [30] was > 100 µM. For the same compound, the TGI [31] was > 100 µM, the TGI [32] was > 100 µM and the TGI [33] was > 100 µM. For the same compound, the TGI [34] was > 100 µM, the TGI [35] was > 100 µM and the TGI [36] was > 100 µM. For the same compound, the TGI [37] was > 100 µM, the TGI [38] was > 100 µM and the TGI [39] was > 100 µM. The TGI [40] was > 100 µM, the TGI [41] was > 100 µM and the TGI [42] was > 100 µM. For the same compound, the TGI [43] was > 100 µM, the TGI [44] was > 100 µM and the TGI [45] was > 100 µM. For the same compound, the TGI [46] was > 100 µM, the TGI [47] was > 100 µM and the TGI [48] was > 100 µM. The TGI [49] was > 100 µM, the TGI [50] was > 100 µM and the TGI [51] was > 100 µM. For the same compound, the TGI [52] was > 100 µM, the TGI [53] was > 100 µM and the TGI [54] was > 100 µM. For the same compound, the TGI [55] was > 100 µM and the TGI [56] was > 100 µM.

Compound `C=C(C)C(=O)OC1CC2(C)OC(=CC2=O)C(C)CC2OC(=O)C(=C)C12` (stereo unspecified) has a TGI [1] of 74.5 µM, a TGI [2] of 38.1 µM and a TGI [3] of 27.8 µM. For the same compound, the TGI [4] was > 62.8 µM, the TGI [5] was 35.6 µM and the TGI [6] was 34.3 µM. It also gave a TGI [7] of 24.2 µM, a TGI [8] of 30.2 µM and a TGI [9] of 28.3 µM. The TGI [10] was 25.1 µM, the TGI [11] was 39.2 µM and the TGI [13] was > 24.7 µM. The TGI [14] was 7.98 µM, the TGI [15] was > 100 µM and the TGI [16] was 5.62 µM. It also gave a TGI [17] of 18.3 µM, a TGI [18] of 20.1 µM and a TGI [19] of 25.8 µM. The TGI [20] was 36.7 µM, the TGI [21] was 26.9 µM and the TGI [22] was 16.1 µM. For the same compound, the TGI [23] was 9.02 µM, the TGI [57] was 24.8 µM and the TGI [24] was 38.1 µM. For the same compound, the TGI [25] was 26.6 µM, the TGI [26] was 69.8 µM and the TGI [28] was 37.6 µM. The TGI [29] was 14.2 µM, the TGI [30] was 47.7 µM and the TGI [31] was > 100 µM. The TGI [32] was 17.6 µM, the TGI [33] was 14.4 µM and the TGI [34] was 4.2 µM. It also gave a TGI [58] of 19 µM, a TGI [35] of 31.8 µM and a TGI [36] of 17.8 µM. The TGI [37] was 5.15 µM, the TGI [38] was > 100 µM and the TGI [39] was 27.7 µM. The TGI [40] was 38.8 µM, the TGI [41] was 13.4 µM and the TGI [43] was 25.4 µM. It also gave a TGI [44] of 3.31 µM, a TGI [45] of 49.2 µM and a TGI [46] of 18.7 µM. The TGI [47] was 24.6 µM, the TGI [48] was 28.7 µM and the TGI [49] was 55.3 µM. For the same compound, the TGI [50] was > 35.1 µM, the TGI [51] was 16.6 µM and the TGI [52] was 5.19 µM. For the same compound, the TGI [53] was 24.2 µM, the TGI [54] was 21.4 µM and the TGI [55] was 29.7 µM. It also gave a TGI [56] of 35.2 µM.
